Test results published in ChEMBL document CHEMBL5316291 (J Med Chem, 2023).
Active and inactive are the calls of the source. The calls are words filed in the database; no cut-off is given here.

Tests used:
[1] = system: CT26; test: Antitumor activity against mouse CT26 cells implanted in po dosed BALB/c mouse assessed as increase in IFN-beta levels at 100 mg/kg measured after 14 days by RT-qPCR analysis; assay type: functional, organism-based; conditions: time 14.0 day
[2] = system: CT26; test: Antitumor activity against mouse CT26 cells implanted in po dosed BALB/c mouse assessed as increase in CXCL10 levels at 100 mg/kg measured after 14 days by RT-qPCR analysis; assay type: functional, organism-based; conditions: time 14.0 day
[3] = Apparent volume of distribution in ICR mouse at 10 mg/kg, po measured upto 24 hrs by LC-MS/MS analysis; assay type: ADME, organism-based; conditions: in vivo
[4] = system: CT26; test: Antitumor activity against mouse CT26 cells implanted in BALB/c mouse assessed as tumor cell contraction at 25 to 100 mg/kg, po bid measured for 14 days by hematoxylin and eosin staining based fluorescence microscopic analysis; assay type: functional, organism-based; conditions: dose 25-100 mg/kg, time 14.0 day
[5] = target: T1, Protein mono-ADP-ribosyltransferase TIPARP (Mus musculus) (UniProt Q8C1B2); test: Inhibition of PARP7 in mouse CT26 cells assessed as increase in STAT1 phosphorylation incubated for 6 hrs in presence of DMXAA by Western blotting analysis; assay type: cell-based; conditions: dose 0.44-4 µM
T1 sequence (whole entry): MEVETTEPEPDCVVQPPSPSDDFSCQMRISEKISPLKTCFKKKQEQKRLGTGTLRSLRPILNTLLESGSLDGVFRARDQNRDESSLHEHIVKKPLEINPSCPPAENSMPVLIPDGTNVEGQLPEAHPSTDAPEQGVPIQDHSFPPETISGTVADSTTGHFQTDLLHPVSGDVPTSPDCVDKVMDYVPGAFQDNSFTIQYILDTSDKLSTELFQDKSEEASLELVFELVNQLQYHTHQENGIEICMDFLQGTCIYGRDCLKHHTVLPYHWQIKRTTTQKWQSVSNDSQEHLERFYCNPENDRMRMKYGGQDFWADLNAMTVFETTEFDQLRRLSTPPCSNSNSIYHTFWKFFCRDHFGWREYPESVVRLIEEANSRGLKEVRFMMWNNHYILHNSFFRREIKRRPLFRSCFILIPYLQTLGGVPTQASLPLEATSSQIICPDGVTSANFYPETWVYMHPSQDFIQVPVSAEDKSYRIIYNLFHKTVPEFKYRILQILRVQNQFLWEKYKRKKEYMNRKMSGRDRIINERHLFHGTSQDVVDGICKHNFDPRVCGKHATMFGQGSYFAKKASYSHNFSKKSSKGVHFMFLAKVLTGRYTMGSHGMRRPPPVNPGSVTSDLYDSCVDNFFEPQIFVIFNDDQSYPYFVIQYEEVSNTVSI

[6] = system: CT26; test: Antitumor activity against mouse CT26 cells implanted in BALB/c mouse assessed as increase in infiltration of CD3 positive CD4 positive T lymphocytes in tumors at 50 mg/kg, po measured after 14 days by flow cytometry (reference value: 7.95%); assay type: functional; conditions: time 14 day
[7] = system: CT26; test: Antitumor activity against mouse CT26 cells implanted in BALB/c mouse assessed as decrease in Ki-67 expression at 25 to 100 mg/kg, po bid measured for 14 days by immunohistochemistry analysis; assay type: functional, organism-based; conditions: dose 25-100 mg/kg, time 14.0 day
[8] = Tmax in ICR mouse at 10 mg/kg, po measured upto 24 hrs by LC-MS/MS analysis; assay type: ADME, organism-based; conditions: in vivo
[9] = Toxicity in BALB/c mouse implanted with mouse CT26 cells assessed as change in body weight at 25 to 100 mg/kg, po measured for 14 days; assay type: organism-based; conditions: in vivo, 336 h, dose 25-100 mg/kg, time 14 day

- Vz [3]: 4.5836 L/kg
- inhibition [5]: Dose-Dependent Effect
- Tmax [8]: 34.8 min
Compound: C[C@@H](CN1CC(C(=O)N2CCN(c3ncc(C(F)(F)F)cn3)CC2)C1)Nc1cn[nH]c(=O)c1C(F)(F)F
- Activity [1]: Active
- Activity [2]: Active
- Activity [4]: Active
- Activity [6]: 63.1%
- Activity [7]: Active
- Activity [9]: Non-Toxic
